These results are taken from PMC9965906, “Discovery and Development Strategies for SARS-CoV-2 NSP3 Macrodomain Inhibitors” (Pathogens, 2023).

The assay addresses SARS-CoV-2 NSP3 Mac1 (Severe acute respiratory syndrome coronavirus 2, UniProt P0DTD1). In words: biochemical. The following applies: MIDAS hit compounds and analogues; for inhibition at 125 µM: read-out: Inhibition at top concentration of 125 µM (%); for IC50 / IC50 in µM: top concentration 125 µM, 8-point 1:1 dilution, duplicate; for IC50: read-out: IC50. It is filed as binding.

Structures are written as SMILES. Values joined by “and” are separate entries in the source; they are usually repeats but may differ in a detail not shown here. Identical values can stand only once.

In general, IC50 refers to the midpoint of a concentration-inhibition curve. With `CC(=O)Nc1ccc(C=Cc2cc(C(=O)O)c3cc(C)ccc3n2)cc1` [IAL-MD0059, CC(=O)NC=1C=CC(C=CC=2C=C(C(=O)O)C=3C=C(C)C=CC3N2)=CC1], the inhibition at 125 µM came to 63% and the IC50 is 22.8 µM.

Regarding `CC(C)n1ncc2c(C(=O)N3CCc4ccccc4C3)cc(-c3cccs3)nc21` [IAL-MD0060, CC(C)N1N=CC=2C(=CC(=NC12)C3=CC=CS3)C(=O)N4CCC=5C=CC=CC5C4], the inhibition at 125 µM was 1.9% and the “IC50 in µM” value is listed as “Not measurable”.

As for `CCn1ncc2c(C(=O)Nc3cccc(-c4nnco4)c3)cc(-c3cccs3)nc21` [IAL-MD0061, CCN1N=CC=2C(=CC(=NC12)C3=CC=CS3)C(=O)NC=4C=CC=C(C4)C5=NN=CO5], the inhibition at 125 µM was determined as 7% and the “IC50 in µM” value was “Not measurable”.

Turning to `CCn1ncc2c(C(=O)N(C)CC(=O)NCc3ccco3)cc(-c3cccs3)nc21` [IAL-MD0062, CCN1N=CC=2C(=CC(=NC12)C3=CC=CS3)C(=O)N(C)CC(=O)NCC4=CC=CO4], the inhibition at 125 µM worked out at 42.2% and the “IC50 in µM” value is reported as “Not measurable”.

Turning to `CC(C)n1ncc2c(C(=O)N3CCNC(=O)C3)cc(-c3cccs3)nc21` [IAL-MD0064, CC(C)N1N=CC=2C(=CC(=NC12)C3=CC=CS3)C(=O)N4CCNC(=O)C4], the inhibition at 125 µM stood at 78.7%; the IC50 was 25 µM and 25.2 µM.

Consider `CC(C)n1ncc2c(C(=O)N(C)Cc3ccc4c(c3)OCO4)cc(-c3cccs3)nc21` [IAL-MD0065, CC(C)N1N=CC=2C(=CC(=NC12)C3=CC=CS3)C(=O)N(C)CC=4C=CC=5OCOC5C4], for which the inhibition at 125 µM was determined as 9.5% and the “IC50 in µM” value was “Not measurable”.

On to `CCn1ncc2c(C(=O)N3CCCC3c3ccc(OC)cc3)cc(-c3cccs3)nc21` (centres unmarked) [IAL-MD0066, CCN1N=CC=2C(=CC(=NC12)C3=CC=CS3)C(=O)N4CCCC4C=5C=CC(OC)=CC5], for which the inhibition at 125 µM amounted to 13.5% and the “IC50 in µM” value was “Not measurable”.

For `CCn1ncc2c(C(=O)N3CCN(C(=O)c4ccccc4)CC3)cc(-c3ccccc3)nc21` [IAL-MD0069, CCN1N=CC=2C(=CC(=NC12)C=3C=CC=CC3)C(=O)N4CCN(CC4)C(=O)C=5C=CC=CC5], the “Inhibition at top concentration of 125 µM (%)” value is listed as “Not measurable” and the “IC50 in µM” value is “Not measurable”.

Regarding `CC(C)n1ncc2c(C(=O)N3CCNC(=O)C3)cc(-c3ccco3)nc21` [IAL-MD0070, CC(C)N1N=CC=2C(=CC(=NC12)C3=CC=CO3)C(=O)N4CCNC(=O)C4], the inhibition at 125 µM stood at 83.2% and the half-maximal inhibitory concentration (IC50) came to 16.3 µM.

`CCn1ncc2c(C(=O)N(Cc3ccccn3)C(C)C)cc(-c3cccs3)nc21` [IAL-MD0071, CCN1N=CC=2C(=CC(=NC12)C3=CC=CS3)C(=O)N(CC=4C=CC=CN4)C(C)C]: the inhibition at 125 µM worked out at 36.8% and the “IC50 in µM” value is “Not measurable”.

Regarding `CC1c2cccn2CCN1C(=O)c1cc(-c2cccs2)nc2c1cnn2C(C)C` (centres unmarked) [IAL-MD0072, CC(C)N1N=CC=2C(=CC(=NC12)C3=CC=CS3)C(=O)N4CCN5C=CC=C5C4C], the inhibition at 125 µM amounted to 9.8% and the “IC50 in µM” value was “Not measurable”.

Take `Cc1cc(CN(C)C(=O)c2cc(-c3cccs3)nc3c2cnn3C(C)C)no1` [IAL-MD0073, CC(C)N1N=CC=2C(=CC(=NC12)C3=CC=CS3)C(=O)N(C)CC=4C=C(C)ON4]: the inhibition at 125 µM was 47% and the “IC50 in µM” value was “Not measurable”.

Take `CCn1ncc2c(C(=O)NCC(=O)N(C)C)cc(-c3cccs3)nc21` [IAL-MD0074, CCN1N=CC=2C(=CC(=NC12)C3=CC=CS3)C(=O)NCC(=O)N(C)C]: the inhibition at 125 µM was determined as 77.7% and the IC50 was determined as 25.3 µM.

For the compound `CC(C)n1ncc2c(C(=O)N3CCNC(=O)C3(C)C)cc(-c3cccs3)nc21` [IAL-MD0075, CC(C)N1N=CC=2C(=CC(=NC12)C3=CC=CS3)C(=O)N4CCNC(=O)C4(C)C], the inhibition at 125 µM is 30.9% and the “IC50 in µM” value was “Not measurable”.

Turning to `CC(=O)Nc1cccc(C(=O)N2CCC(c3c[nH]c4ncccc34)CC2)c1` [IAL-MD0078, CC(=O)NC=1C=CC=C(C1)C(=O)N2CCC(CC2)C3=CNC=4N=CC=CC34], the inhibition at 125 µM is 10.5% and the “IC50 in µM” value was “Not measurable”.

On to `COc1ccc(-c2cc(C(=O)Nc3nnc[nH]3)c3ccccc3n2)cc1` [IAL-MD0079, COC=1C=CC(=CC1)C=2C=C(C(=O)NC3=NN=CN3)C=4C=CC=CC4N2], for which the inhibition at 125 µM is 16.3% and the “IC50 in µM” value is “Not measurable”.

Turning to `CC(C)n1ncc2c(C(=O)N3CCCCC3C(=O)N3CCCC3)cc(-c3cccs3)nc21` (centres unmarked) [IAL-MD0080, CC(C)N1N=CC=2C(=CC(=NC12)C3=CC=CS3)C(=O)N4CCCCC4C(=O)N5CCCC5], the inhibition at 125 µM came out at 45.9% and the “IC50 in µM” value is “Not measurable”.

Turning to `CNC(=O)CN(C)C(=O)c1cc(-c2cccs2)nc2c1c(C)nn2C` [IAL-MD0081, CNC(=O)CN(C)C(=O)C=1C=C(N=C2N(C)N=C(C)C12)C3=CC=CS3], the inhibition at 125 µM was found to be 53% and the “IC50 in µM” value is given as “Not measurable”.

Take `CC(=O)N1CCN(C(=O)c2cc(-c3ccccc3)nc3c2cnn3C(C)C)CC1` [IAL-MD0082, CC(C)N1N=CC=2C(=CC(=NC12)C=3C=CC=CC3)C(=O)N4CCN(CC4)C(=O)C]: the “Inhibition at top concentration of 125 µM (%)” value is “Not measurable” and the “IC50 in µM” value is “Not measurable”.

`CC(C)n1ncc2c(C(=O)N3CCCC3)cc(-c3cccs3)nc21` [IAL-MD0083, CC(C)N1N=CC=2C(=CC(=NC12)C3=CC=CS3)C(=O)N4CCCC4]: the inhibition at 125 µM came out at 47.4% and the “IC50 in µM” value is reported as “Not measurable”.

With `COc1ncccc1C(=O)N1CCC(c2c[nH]c3ncccc23)CC1` [IAL-MD0084, COC=1N=CC=CC1C(=O)N2CCC(CC2)C3=CNC=4N=CC=CC34], the inhibition at 125 µM was found to be 13.2% and the “IC50 in µM” value was “Not measurable”.

Take `CC(C)n1ncc2c(C(=O)N3CCCC(C)(O)C3)cc(-c3cccs3)nc21` (centres unmarked) [IAL-MD0086, CC(C)N1N=CC=2C(=CC(=NC12)C3=CC=CS3)C(=O)N4CCCC(C)(O)C4]: the inhibition at 125 µM was 47.7% and the “IC50 in µM” value was “Not measurable”.

Take `CC1CN(C(=O)c2cc(-c3cccs3)nc3c2cnn3C(C)C)C(C)(C)CO1` (centres unmarked) [IAL-MD0087, CC(C)N1N=CC=2C(=CC(=NC12)C3=CC=CS3)C(=O)N4CC(C)OCC4(C)C]: the inhibition at 125 µM is 22.3% and the “IC50 in µM” value is “Not measurable”.

`COc1ccc(-c2cc(C(=O)N(C)C)c3ccccc3n2)cc1` [IAL-MD0088, COC=1C=CC(=CC1)C=2C=C(C(=O)N(C)C)C=3C=CC=CC3N2]: the inhibition at 125 µM came out at 79.4% and the IC50 was 24 µM.

With `O=C(O)c1cc(-c2ccc(OC(F)F)cc2)nc2ccccc12` [IAL-MD0089, OC(=O)C=1C=C(N=C2C=CC=CC12)C=3C=CC(OC(F)F)=CC3], the inhibition at 125 µM amounted to 5.7% and the “IC50 in µM” value was “Not measurable”.

For the compound `CC(C)n1ncc2c(C(=O)Nc3ccn(C)n3)cc(-c3cccs3)nc21` [IAL-MD0090, CC(C)N1N=CC=2C(=CC(=NC12)C3=CC=CS3)C(=O)NC=4C=CN(C)N4], the inhibition at 125 µM came to 11% and the “IC50 in µM” value is recorded as “Not measurable”.

As to `CCn1ncc2c(C(=O)NCCNC(C)=O)cc(-c3cccs3)nc21` [IAL-MD0092, CCN1N=CC=2C(=CC(=NC12)C3=CC=CS3)C(=O)NCCNC(=O)C], the inhibition at 125 µM was 17.1% and the “IC50 in µM” value is listed as “Not measurable”.

As to `CCCN(CC(=O)Nc1ccccc1C)C(=O)c1cc(-c2cccs2)nc2c1cnn2CC` [IAL-MD0093, CCCN(CC(=O)NC=1C=CC=CC1C)C(=O)C=2C=C(N=C3N(CC)N=CC23)C4=CC=CS4], the inhibition at 125 µM came out at 7.7% and the “IC50 in µM” value is reported as “Not measurable”.

In the case of `COc1ccc(-c2cc(C(=O)O)c3ccccc3n2)cc1OC` [IAL-MD0094, COC=1C=CC(=CC1OC)C=2C=C(C(=O)O)C=3C=CC=CC3N2], the inhibition at 125 µM came to 31.9% and the “IC50 in µM” value is “Not measurable”.

As for `CC(C#N)NC(=O)c1cc(-c2cccs2)nc2c1cnn2C(C)C` (centres unmarked) [IAL-MD0095, CC(C)N1N=CC=2C(=CC(=NC12)C3=CC=CS3)C(=O)NC(C)C#N], the inhibition at 125 µM was 19.8% and the “IC50 in µM” value is recorded as “Not measurable”.

As to `CCn1ncc2c(C(=O)N3CCCC(C)C3)cc(-c3ccccc3)nc21` (centres unmarked) [IAL-MD0096, CCN1N=CC=2C(=CC(=NC12)C=3C=CC=CC3)C(=O)N4CCCC(C)C4], the inhibition at 125 µM stood at 3.9% and the “IC50 in µM” value is reported as “Not measurable”.

As for `CCn1ncc2c(C(=O)Nc3ccc(C(N)=O)cc3)cc(-c3cccs3)nc21` [IAL-MD0097, CCN1N=CC=2C(=CC(=NC12)C3=CC=CS3)C(=O)NC=4C=CC(=CC4)C(=O)N], the inhibition at 125 µM was 7.7% and the “IC50 in µM” value was “Not measurable”.

Consider `CCCNC(=O)c1cc(-c2ccc(OC)cc2)nc2ccccc12` [IAL-MD0098, CCCNC(=O)C=1C=C(N=C2C=CC=CC12)C=3C=CC(OC)=CC3], for which the inhibition at 125 µM worked out at 22% and the “IC50 in µM” value was “Not measurable”.

`COc1ccc(-c2cc(C(=O)NCC(F)(F)F)c3ccccc3n2)cc1` [IAL-MD0099, COC=1C=CC(=CC1)C=2C=C(C(=O)NCC(F)(F)F)C=3C=CC=CC3N2]: the inhibition at 125 µM worked out at 22.2% and the “IC50 in µM” value was “Not measurable”.

Turning to `COc1ccc(-c2cc(C(=O)Nc3cccnc3)c3ccccc3n2)cc1` [IAL-MD0100, COC=1C=CC(=CC1)C=2C=C(C(=O)NC=3C=CC=NC3)C=4C=CC=CC4N2], the inhibition at 125 µM was 15.9% and the “IC50 in µM” value was “Not measurable”.

With `COc1ccc(-c2cc(C(=O)Nc3cccc(S(=O)(=O)N(C)C)c3)c3ccccc3n2)cc1` [IAL-MD0101, COC=1C=CC(=CC1)C=2C=C(C(=O)NC=3C=CC=C(C3)S(=O)(=O)N(C)C)C=4C=CC=CC4N2], the inhibition at 125 µM came to 25.2% and the “IC50 in µM” value was “Not measurable”.

Consider `COc1ccc(-c2cc(C(=O)NC3CC3)c3ccccc3n2)cc1` [IAL-MD0103, COC=1C=CC(=CC1)C=2C=C(C(=O)NC3CC3)C=4C=CC=CC4N2], for which the inhibition at 125 µM is 38.4% and the “IC50 in µM” value is listed as “Not measurable”.
